Test results: patent publication US12258304B2, “Compounds and methods for treatment of bacterial infections” (Albert Einstein College of Medicine, priority 2019, dated 2025)
“Also recorded” adds a separate entry of the source.

Assays:
Helicobacter pylori (Hp) = assay: Hp growth inhibition in liquid culture (OD600); type: cell-based
Experimental: Inhibition was determined by measuring the OD600 of liquid cultures incubated at 37° C. for 48 hours.
(§1) Hp grows under microanaerobic conditions in the human gut, where over population can lead to ulcers and cancer. Based on the K results described above, the effects of 2F-DHC were examined on the growth of Hp in BHI medium supplemented with 10% fetal bovine serum and Hp selective supplement (DENT supplement) in 96-well plate format. Growth of Hp was detected by measuring the optical density of the media at 600 nm after 72 hr of growth at 37° C. […] To determine if 2F-DHC inhibits Hp growth by specifically blocking the action of MqnE in the futalosine pathway, it was tested whether the product of MqnE, AF, could rescue Hp growth in the presence of 2F-DHC.

[1] = target: T1, PhMqnE (MqnE from Pedobacter heparinus) (Pedobacter heparinus, UniProt C6XW09); assay: PhMqnE substrate kinetics / turnover of DHC analogues; type: biochemical
Experimental: (§2) FIGS. 2(a), 2(b) and 2(c) illustrate inhibition studies of MqnE. […] Assays contained 0.5 μM of PhMqnE, 1 mM SAM, 1 mM DHC, and 2-FDHC varied from 5 μM to 2 mM.
(§3) The mqnE gene from Pedobacter heparinus (PhMqnE) was coexpressed together with the pPH151 plasmid, which contains the suf operon from E. coli under the control of a T7 promoter, to promote proper FeS cluster assembly in PhMqnE. […] It was surmised that positioning fluorine atoms around the aromatic ring of DHC would stabilize the captodative radical intermediate 1 by preventing it from converting to intermediate 2 in FIG. 1(a), thereby acting as a mechanism-based inhibitor and trapping the enzyme in an intermediate state. DHC analogues were synthesized with fluorine at the 2, 4, 5, and 2,4 positions of DHC (FIG. 1 (b)).

Escherichia coli = assay: E. coli growth in minimal media (OD600); type: cell-based; details: 1 μL of 100 mM 2F-DHC in 100 μL minimal media, OD600 at 2, 3 and 4 hr
Source text: (§4) FIGS. 4(a) and 4(b) illustrate E. coli and HEK293T cell growth in the presence of 2F-DHC.
as §1
(§5) As shown in FIG. 4(a), an overnight culture of E. coli was diluted 1:25 into 100 μL of minimal media with either 1 μL of DMSO (no DHC control) or 1 μL of 100 mM 2F-DHC in DMSO in a 96-well plate. The plate was shaken at 37° C. and monitored for at 2, 3, and 4 hr post inoculation by measuring the OD600. […] Cell growth and viability were measured with an automated cell counter after staining with tryptan blue (Countess, Life Technologies).

HEK293T cells = assay: HEK293T cell growth and viability; type: cell-based, human; details: 1 mM 2F-DHC, 24 and 48 hr culture
Experimental: as §4, §5

[2] = target: T1, PhMqnE (MqnE from Pedobacter heparinus); assay: PhMqnE competition / inhibition assay (AF formation); type: biochemical
Experimental: as §2, §3

[3] = substrate: C=C(Oc1cccc(C(=O)O)c1)C(=O)O; assay: PhMqnE substrate kinetics / turnover of DHC analogues; type: biochemical, Pedobacter heparinus; details: other: purified PhMqnE, dithionite (DT) as electron source
[4] = media supplemented with 1 mM AF, 48 hr

Nc1ncnc2c1ncn2[C@@H]1O[C@H](CCC(=O)c2cccc(C(=O)O)c2)[C@@H](O)[C@H]1O [AF, aminofutalosine, reference compound]
OD600 of Hp culture in the presence of 1 mM 2F-DHC (Helicobacter pylori (Hp); [4]): ~0.28 | rescue of Hp growth in the presence of 1 mM 2F-DHC (Helicobacter pylori (Hp); [4]): fully restored; also recorded: can restore growth

C[S+](CC[C@H](N)C(=O)[O-])C[C@H]1O[C@@H](n2cnc3c(N)ncnc32)[C@H](O)[C@@H]1O (stereo partly drawn) [SAM, S-adenosyl-L-methionine, reference compound]
Km ([1]; purified PhMqnE, dithionite (DT) as electron source): 21 µM

C=C(Oc1cccc(C(=O)O)c1F)C(=O)O [2F-DHC]
fold slower product formation than with DHC as substrate ([1]; 2 mM SAM and 2 mM 2F-DHC): ~10 fold | rate of conversion to fluorinated AF product ([1]; 2 mM SAM and 2 mM analogue as sole substrate): 0.41 min⁻¹ | IC90 (Helicobacter pylori (Hp); Helicobacter pylori, 72 hr, read-out: minimal inhibitory concentration that restricts >90% of the growth (IC90)): < 23 mg/L | IC50 (Helicobacter pylori (Hp); Helicobacter pylori, BHI medium, 10% FBS, OD600 after 72 hr at 37° C.): 31.8 ± 2.5 µM | inhibition at 30 µM (Helicobacter pylori (Hp); Helicobacter pylori, at ˜30 μM (6 pg/mL), 72 hr): ~50% | growth of Hp (Helicobacter pylori (Hp); at 1 mM, 48 hr): completely inhibits growth; also recorded: fully inhibited | growth of Hp (Helicobacter pylori (Hp); at, 72 hr): completely inhibited | effect on growth of E. coli (Escherichia coli): no effect; also recorded: No difference in growth is observed | effect on HEK293T cell growth and viability (HEK293T cells): No difference in growth is observed | inhibition of AF production ([2]; 250 μM inhibitor, 0.5 μM PhMqnE, 1 mM SAM, 1 mM DHC): almost completely inhibited | rate of AF formation in the presence of inhibitor ([2]; competition assay, 2 mM DHC + 2 mM analogue, 3.5 min^−1 without analogues): 0.2 min⁻¹ | Ki ([2]; fit to non-linear competitive inhibition equation, 0.5 μM PhMqnE, 1 mM SAM, 1 mM DHC): ~2 µM

B1: PhMqnE (MqnE from Pedobacter heparinus) (Pedobacter heparinus DSM 2366) (protein)
chain: MDTTSKLALILADADLPAALKAIALKVQNQERITFDEGVYLYENAELGYLGVLANYIREQKHGDNTYFNRNFHIEPTNVCVYDCKFCSYSRLIKQKEEGWEMSVDGMMEVLKKYDHEPVTEVHITGGVVPKQNLEFYSDFFRRAKAHRPELHIKALTPVEYYYIFKKAKLSHYDGMKYMQEAGLDSMPGGGAEIFHPEVREKIAHDKCNAEQWLDIHEQAHKLGMKTNATMLYGHIEQFWHRVDHMERLRRQQDKTGGFQAFIPLKFRNQHNQMDHVPEVSVIEDLRNYAIARIYMDNFDHIKAYWAMISRQTAQLSLNFGVDDIDGTLDDTTKIYSMAGAEEQHPAMSTRDLVDLIKQVKRKPIERDTLYNVVTDYSQVTFEDEVKPQYYKLPVIN
Km [3]: 72 µM
